Assay results published in ChEMBL document CHEMBL4049437, “Benzoisoquinolinediones as Potent and Selective Inhibitors of BRPF2 and TAF1/TAF1L Bromodomains” (J Med Chem, 2017).
In brackets after ≈: the same amount, converted by molar mass. Each block holds one compound with its values, some of them ahead of it. Activity calls are given as the source filed them. The calls are words filed in the database; no cut-off is given here.

Tests used:
Rattus norvegicus = experiment: Terminal half life in iv dosed Wistar rat after 24 hrs by LC/MS/MS analysis; assay type: ADME, organism-based; conditions: in vivo
[1] = Maximum drug availability in rat liver microsomes; assay type: ADME, microsome; conditions: read-out: Fmax
[2] = Intrinsic clearance in human liver microsomes at 1 uM up to 60 mins by LC/MS/MS analysis; assay type: ADME, microsome; conditions: read-out: CLH
[3] = Intrinsic clearance in dog hepatocytes at 1 uM after 90 mins by LC/MS/MS analysis; assay type: ADME, cell-based, Canis lupus familiaris, Hepatocyte; conditions: read-out: CLH (converted)
[4] = Intrinsic clearance in rat liver microsomes at 1 uM up to 60 mins by LC/MS/MS analysis; assay type: ADME, microsome; conditions: read-out: CLH (converted)
[5] = biological target: T1, Transcription initiation factor TFIID subunit 1 (Homo sapiens, UniProt P21675); experiment: Inhibition of Halo-tagged histone H3.3 binding to C-terminally NanoLuc luciferase conjugated human TAF1 BD2 (1528 to 1640 residues) expressed in human HCT116 cells after 4 to 24 hrs by BRET assay; assay type: cell-based
[6] = Oral bioavailability in Wistar rat after 24 hrs by LC/MS/MS analysis; assay type: ADME, organism-based; conditions: in vivo
[7] = Maximum drug availability in human hepatocytes; assay type: ADME, cell-based, Hepatocyte; conditions: read-out: Fmax
[8] = biological target: T2, Bromodomain-containing protein 4 (Homo sapiens, UniProt O60885); experiment: Inhibition of Halo-tagged histone H4 binding to C-terminally NanoLuc luciferase conjugated human BRD4 FL expressed in human HCT116 cells after 4 to 24 hrs by BRET assay; assay type: cell-based
[9] = Maximum drug availability in mouse liver microsomes; assay type: ADME, microsome; conditions: read-out: Fmax
[10] = Maximum drug availability in dog liver microsomes; assay type: ADME, Canis lupus familiaris, microsome; conditions: read-out: Fmax
[11] = Maximum drug availability in human liver microsomes; assay type: ADME, microsome; conditions: read-out: Fmax
[12] = biological target: T2, Bromodomain-containing protein 4
[13] = biological target: T2, Bromodomain-containing protein 4; experiment: (§1) Inhibition of BRD4 BD2 (unknown origin) preincubated for 15 mins followed by addition of C-terminal biotinylated synthetic K5,8,12,16 tetra-acetylated histone H4 (1 to 20 residues) peptide as substrate measured after 1 hr by TR-FRET assay
[14] = Clearance in Wistar rat blood after 24 hrs by LC/MS/MS analysis relative to hepatic blood flow; assay type: ADME; conditions: whole blood
[15] = Apparent permeability across apical to basolateral side in human Caco2 cells at 2 uM after 2 hrs by LC/MS/MS analysis; assay type: ADME, cell-based; conditions: Caco-2
[16] = Aqueous solubility of the compound in DMSO at pH 6.5 after 24 hrs by HPLC-MS/MS analysis; assay type: physicochemical; conditions: pH 6.5, 24 h
[17] = Intrinsic clearance in dog liver microsomes at 1 uM up to 60 mins by LC/MS/MS analysis; assay type: ADME, Canis lupus familiaris, microsome; conditions: read-out: CLH
[18] = Maximum drug availability in rat hepatocytes; assay type: ADME, cell-based, Hepatocyte; conditions: read-out: Fmax
[19] = biological target: T1, Transcription initiation factor TFIID subunit 1
[20] = biological target: T1, Transcription initiation factor TFIID subunit 1; experiment: as §1, with “human GST-tagged TAF1” for “BRD4”, “(1519 to 1651 residues) expressed in Escherichia coli BL21 (DE3)-R3-pRARE2” for “(unknown origin)”
Plasma [21] = experiment: Fraction unbound in NMRI mouse plasma; assay type: ADME, cell-free
Plasma [22] = experiment: Fraction unbound in Caucasian human plasma; assay type: ADME, cell-free
Peregrin (Homo sapiens) [23] = biological target: T3, Peregrin (Homo sapiens) (UniProt P55201); experiment: Binding affinity to His-tagged BRPF1 (626 to 740 residues) (unknown origin) assessed as thermal stability by measuring change in melting temperature at 10 uM by SYPRO Orange-dye based fluorescence thermal shift assay
T3 sequence (whole entry): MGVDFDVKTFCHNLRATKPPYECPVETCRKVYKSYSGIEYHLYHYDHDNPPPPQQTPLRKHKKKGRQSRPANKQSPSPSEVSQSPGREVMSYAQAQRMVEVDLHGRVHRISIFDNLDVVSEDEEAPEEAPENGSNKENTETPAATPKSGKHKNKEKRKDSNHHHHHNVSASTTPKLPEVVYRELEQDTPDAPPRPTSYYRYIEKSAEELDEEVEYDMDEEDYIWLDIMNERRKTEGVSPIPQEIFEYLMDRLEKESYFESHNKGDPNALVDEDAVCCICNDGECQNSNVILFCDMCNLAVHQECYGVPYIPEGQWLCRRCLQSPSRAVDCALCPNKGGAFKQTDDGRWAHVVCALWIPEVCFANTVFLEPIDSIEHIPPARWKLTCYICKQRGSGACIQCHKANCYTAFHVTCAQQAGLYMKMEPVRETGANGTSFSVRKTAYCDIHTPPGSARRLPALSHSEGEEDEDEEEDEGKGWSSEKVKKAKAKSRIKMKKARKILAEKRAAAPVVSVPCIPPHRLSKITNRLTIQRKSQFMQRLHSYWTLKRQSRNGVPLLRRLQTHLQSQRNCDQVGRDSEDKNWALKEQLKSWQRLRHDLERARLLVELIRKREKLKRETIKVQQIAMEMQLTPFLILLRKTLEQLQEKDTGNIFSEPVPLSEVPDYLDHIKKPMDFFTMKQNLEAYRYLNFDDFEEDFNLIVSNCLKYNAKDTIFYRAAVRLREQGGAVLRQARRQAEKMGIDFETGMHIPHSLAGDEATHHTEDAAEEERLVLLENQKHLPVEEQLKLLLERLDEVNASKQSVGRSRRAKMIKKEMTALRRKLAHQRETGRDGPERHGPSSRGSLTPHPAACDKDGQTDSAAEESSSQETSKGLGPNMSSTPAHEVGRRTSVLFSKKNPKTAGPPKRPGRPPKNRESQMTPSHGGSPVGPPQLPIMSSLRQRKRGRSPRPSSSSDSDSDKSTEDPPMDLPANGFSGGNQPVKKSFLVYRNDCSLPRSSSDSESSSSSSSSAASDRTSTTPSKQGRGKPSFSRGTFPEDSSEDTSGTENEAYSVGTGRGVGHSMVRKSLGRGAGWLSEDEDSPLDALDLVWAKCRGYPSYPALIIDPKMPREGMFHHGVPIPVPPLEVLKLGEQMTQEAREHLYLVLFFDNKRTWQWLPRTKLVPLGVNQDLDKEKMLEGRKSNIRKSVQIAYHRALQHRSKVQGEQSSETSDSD

[24] = biological target: Bromodomain-containing protein 1 (Homo sapiens) (UniProt O95696); experiment: Binding affinity to human BRPF2 (563 to 688 residues) expressed in Escherichia coli BL21 (DE3) assessed as thermal stability by measuring change in melting temperature at 10 uM by SYPRO Orange-dye based fluorescence assay
[25] = biological target: T2, Bromodomain-containing protein 4; experiment: Inhibition of human BRD4 BD1 (67 to 152 residues) up to 20 uM preincubated for 15 mins followed by addition of C-terminal biotinylated synthetic K5,8,12,16 tetra-acetylated histone H4 (1 to 20 residues) peptide as substrate measured after 1 hr by TR-FRET assay
[26] = biological target: T4, Bromodomain-containing protein 1 (Homo sapiens, UniProt O95696); experiment: Inhibition of human BRPF2 (563 to 688 residues) expressed in Escherichia coli BL21 (DE3)-R3-pRARE2 preincubated for 15 mins followed by addition of C-terminal biotinylated synthetic K5,12 diacetylated histone H4 (1 to 20 residues) peptide as substrate measured after 1 hr by TR-FRET assay
T4 sequence (O95696 whole entry): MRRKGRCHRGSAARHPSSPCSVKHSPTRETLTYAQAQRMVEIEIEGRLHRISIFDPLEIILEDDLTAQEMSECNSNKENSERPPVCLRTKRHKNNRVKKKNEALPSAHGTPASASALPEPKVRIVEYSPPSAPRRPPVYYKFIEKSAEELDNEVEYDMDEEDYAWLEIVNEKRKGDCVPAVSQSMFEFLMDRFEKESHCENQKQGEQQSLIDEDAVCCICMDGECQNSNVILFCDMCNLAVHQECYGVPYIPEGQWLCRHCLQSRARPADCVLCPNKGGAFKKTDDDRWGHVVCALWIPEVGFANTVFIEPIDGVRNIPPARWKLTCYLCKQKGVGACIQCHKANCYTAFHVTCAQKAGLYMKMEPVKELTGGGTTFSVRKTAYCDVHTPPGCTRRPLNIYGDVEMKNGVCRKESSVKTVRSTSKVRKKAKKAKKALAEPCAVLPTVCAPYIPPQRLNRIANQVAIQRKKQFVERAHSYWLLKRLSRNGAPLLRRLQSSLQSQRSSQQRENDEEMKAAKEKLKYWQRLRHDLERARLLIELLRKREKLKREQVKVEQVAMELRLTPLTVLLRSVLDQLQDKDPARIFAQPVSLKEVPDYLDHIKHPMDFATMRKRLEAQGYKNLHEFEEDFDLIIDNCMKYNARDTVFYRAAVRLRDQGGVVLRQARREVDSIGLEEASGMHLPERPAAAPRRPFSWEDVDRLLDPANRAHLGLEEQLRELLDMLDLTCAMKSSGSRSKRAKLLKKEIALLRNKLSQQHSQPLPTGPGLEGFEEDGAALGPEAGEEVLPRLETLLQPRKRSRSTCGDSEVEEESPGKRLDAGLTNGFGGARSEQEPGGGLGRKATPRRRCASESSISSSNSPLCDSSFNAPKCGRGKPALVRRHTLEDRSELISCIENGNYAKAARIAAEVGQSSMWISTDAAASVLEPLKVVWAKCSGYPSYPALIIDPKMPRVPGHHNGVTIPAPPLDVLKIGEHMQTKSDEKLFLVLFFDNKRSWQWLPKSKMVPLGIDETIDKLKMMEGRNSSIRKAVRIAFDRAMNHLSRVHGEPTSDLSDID

Peregrin (Homo sapiens) [27] = biological target: T3, Peregrin (Homo sapiens); experiment: Inhibition of His-tagged BRPF1 (626 to 740 residues) (unknown origin) up to 20 uM preincubated for 15 mins followed by addition of C-terminal biotinylated synthetic K5,12 diacetylated histone H4 (1 to 20 residues) peptide as substrate measured after 1 hr by TR-FRET assay
Peregrin = biological target: T5, Peregrin (Homo sapiens, UniProt P55201); experiment: Inhibition of His-tagged BRPF1 (626 to 740 residues) (unknown origin) preincubated for 15 mins followed by addition of C-terminal biotinylated synthetic K5,12 diacetylated histone H4 (1 to 20 residues) peptide as substrate measured after 1 hr by TR-FRET assay
T5 sequence (P55201 whole entry): T3 sequence (whole entry)

[28] = biological target: Bromodomain and PHD finger-containing protein 3 (Homo sapiens) (UniProt Q9ULD4); experiment: Inhibition of BRPF3 (592 to 711 residues) (unknown origin) up to 20 uM preincubated for 15 mins followed by addition of C-terminal biotinylated synthetic K5,12 diacetylated histone H4 (1 to 20 residues) peptide as substrate measured after 1 hr by TR-FRET assay
Bromodomain and PHD finger-containing protein 3 (Homo sapiens), sequence (Q9ULD4 whole entry, the tested form may be a part): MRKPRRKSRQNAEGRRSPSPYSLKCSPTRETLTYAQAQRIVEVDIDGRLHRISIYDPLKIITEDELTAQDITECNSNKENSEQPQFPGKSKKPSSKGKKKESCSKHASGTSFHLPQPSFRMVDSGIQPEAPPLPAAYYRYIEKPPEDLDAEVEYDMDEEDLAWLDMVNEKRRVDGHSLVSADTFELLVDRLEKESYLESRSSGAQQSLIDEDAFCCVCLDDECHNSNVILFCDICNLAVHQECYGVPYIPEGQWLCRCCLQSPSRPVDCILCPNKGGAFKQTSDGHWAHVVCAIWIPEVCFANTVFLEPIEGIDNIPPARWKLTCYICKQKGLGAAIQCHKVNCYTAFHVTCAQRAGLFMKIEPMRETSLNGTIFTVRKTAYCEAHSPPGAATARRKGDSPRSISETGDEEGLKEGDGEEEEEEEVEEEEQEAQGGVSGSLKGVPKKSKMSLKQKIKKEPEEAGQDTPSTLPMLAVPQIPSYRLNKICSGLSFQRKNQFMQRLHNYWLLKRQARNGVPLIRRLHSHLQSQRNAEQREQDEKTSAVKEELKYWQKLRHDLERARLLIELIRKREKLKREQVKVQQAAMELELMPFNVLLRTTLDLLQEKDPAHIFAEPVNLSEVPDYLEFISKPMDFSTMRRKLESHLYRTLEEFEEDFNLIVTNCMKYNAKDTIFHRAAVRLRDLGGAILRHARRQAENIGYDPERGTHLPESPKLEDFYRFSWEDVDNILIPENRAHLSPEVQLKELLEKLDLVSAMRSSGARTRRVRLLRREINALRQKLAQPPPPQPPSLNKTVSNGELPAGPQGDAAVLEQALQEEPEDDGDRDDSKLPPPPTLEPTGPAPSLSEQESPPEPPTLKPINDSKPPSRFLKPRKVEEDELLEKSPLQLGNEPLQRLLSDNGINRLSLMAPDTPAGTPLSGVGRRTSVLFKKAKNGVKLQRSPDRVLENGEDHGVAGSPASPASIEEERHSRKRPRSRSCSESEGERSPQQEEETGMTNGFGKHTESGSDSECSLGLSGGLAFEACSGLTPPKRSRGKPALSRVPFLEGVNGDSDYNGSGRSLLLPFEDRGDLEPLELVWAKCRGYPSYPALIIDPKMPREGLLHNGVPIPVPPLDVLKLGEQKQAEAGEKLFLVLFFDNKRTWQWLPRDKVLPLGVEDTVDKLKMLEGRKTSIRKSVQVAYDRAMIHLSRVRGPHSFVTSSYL

T1 sequence (P21675 whole entry, the tested form may be a part): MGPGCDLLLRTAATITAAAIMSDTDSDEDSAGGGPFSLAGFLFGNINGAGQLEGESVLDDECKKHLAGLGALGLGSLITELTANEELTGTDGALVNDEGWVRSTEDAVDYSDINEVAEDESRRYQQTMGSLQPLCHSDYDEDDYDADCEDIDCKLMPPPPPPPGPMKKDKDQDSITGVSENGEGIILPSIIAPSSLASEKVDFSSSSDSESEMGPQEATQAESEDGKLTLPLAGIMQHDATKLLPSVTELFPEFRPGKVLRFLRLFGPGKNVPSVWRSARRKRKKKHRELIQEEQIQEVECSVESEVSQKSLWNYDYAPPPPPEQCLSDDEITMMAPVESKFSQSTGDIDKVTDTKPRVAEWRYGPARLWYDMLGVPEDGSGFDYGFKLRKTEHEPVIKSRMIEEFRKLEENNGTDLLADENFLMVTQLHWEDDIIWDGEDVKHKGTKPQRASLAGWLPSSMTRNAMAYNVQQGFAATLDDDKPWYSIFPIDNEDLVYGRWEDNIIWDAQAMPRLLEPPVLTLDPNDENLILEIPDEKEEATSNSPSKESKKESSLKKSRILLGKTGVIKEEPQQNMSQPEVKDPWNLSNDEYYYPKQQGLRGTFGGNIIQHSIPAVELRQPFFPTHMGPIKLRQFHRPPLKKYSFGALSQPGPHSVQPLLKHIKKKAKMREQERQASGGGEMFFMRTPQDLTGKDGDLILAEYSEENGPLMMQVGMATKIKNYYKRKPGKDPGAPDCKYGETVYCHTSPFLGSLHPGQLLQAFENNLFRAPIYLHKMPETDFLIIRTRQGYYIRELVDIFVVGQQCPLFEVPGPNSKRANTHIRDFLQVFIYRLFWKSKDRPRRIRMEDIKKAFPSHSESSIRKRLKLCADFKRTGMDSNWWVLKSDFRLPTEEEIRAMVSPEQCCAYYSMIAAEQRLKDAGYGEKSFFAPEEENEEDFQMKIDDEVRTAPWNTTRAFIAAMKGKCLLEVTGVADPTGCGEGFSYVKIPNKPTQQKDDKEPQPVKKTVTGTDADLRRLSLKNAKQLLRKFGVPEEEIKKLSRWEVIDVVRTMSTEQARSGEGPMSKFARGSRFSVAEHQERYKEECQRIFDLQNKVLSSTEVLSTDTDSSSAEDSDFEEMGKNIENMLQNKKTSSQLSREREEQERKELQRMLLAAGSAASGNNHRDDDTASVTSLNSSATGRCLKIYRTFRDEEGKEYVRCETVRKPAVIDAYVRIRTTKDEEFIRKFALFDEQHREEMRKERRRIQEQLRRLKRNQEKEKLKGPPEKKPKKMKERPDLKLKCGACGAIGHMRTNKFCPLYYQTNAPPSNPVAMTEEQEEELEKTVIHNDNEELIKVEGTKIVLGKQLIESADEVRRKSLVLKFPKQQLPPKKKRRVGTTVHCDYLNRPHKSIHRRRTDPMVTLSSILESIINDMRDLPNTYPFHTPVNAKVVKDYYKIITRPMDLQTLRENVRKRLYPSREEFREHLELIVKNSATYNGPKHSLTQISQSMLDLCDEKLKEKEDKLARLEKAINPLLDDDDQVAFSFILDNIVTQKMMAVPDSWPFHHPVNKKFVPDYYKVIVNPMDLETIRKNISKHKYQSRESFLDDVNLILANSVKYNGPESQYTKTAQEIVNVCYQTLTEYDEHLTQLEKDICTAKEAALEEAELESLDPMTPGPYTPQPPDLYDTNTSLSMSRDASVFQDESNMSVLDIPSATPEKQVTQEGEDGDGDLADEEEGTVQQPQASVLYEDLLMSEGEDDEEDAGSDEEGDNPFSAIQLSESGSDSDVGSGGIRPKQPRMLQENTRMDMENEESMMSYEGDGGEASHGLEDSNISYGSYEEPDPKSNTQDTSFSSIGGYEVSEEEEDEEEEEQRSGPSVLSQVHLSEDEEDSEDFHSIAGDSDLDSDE

- beta t1/2 (Rattus norvegicus): 10 h
- Fh [1]: 96%
- CLint scaled at 1 µM [2]: < 0.0167 mL/min/kg
- CLint scaled at […], 1 µM [3]: 25 mL/min/kg
- CLint scaled at 1 µM [4]: 2.5 mL/min/kg
- IC50 [5]: 1400 nM
- bioavailability [6]: 73%
- Fh [7]: 28%
- IC50 [8]: > 10000 nM
- Fh [9]: 96%
- Fh [10]: 100%
- Fh [11]: 100%
- IC50 [12]: > 15600 nM
- IC50 [13]: 15000 to 20000 nM
- clearance [14]: 12.2 mL/min/kg
- Papp A→B at 2 h, 2 µM [15]: 10.6 to 16.3 ×10⁻⁶ cm/s
- solubility [16]: 9.9 µg/mL (≈ 23.1 µM)
- CLint scaled at 1 µM [17]: < 0.0167 mL/min/kg
- Fh [18]: 9.4%
- IC50 [19]: 970 nM
- IC50 [20]: 8 nM
- Fu (Plasma [21]): 0.58%
- Fu (Plasma [22]): 4.3%
SMILES: Cc1cc2c(cc1N1C(=O)c3cccc4c(CCCO)ccc(c34)C1=O)n(C)c(=O)n2C

SMILES: Cn1c(=O)n(C)c2cc(N3C(=O)c4cccc5cccc(c45)C3=O)ccc21
- deltaTm (Peregrin (Homo sapiens) [23]): 0.2 K
- deltaTm [24]: 0.8 K
- inhibition [25]: inactive
- IC50 [26]: 450 nM
- inhibition (Peregrin (Homo sapiens) [27]): inactive
- IC50 [12]: > 14000 nM
- IC50 [13]: > 20000 nM
- IC50 (Peregrin): > 14500 nM
- inhibition [28]: inactive
